Source: the supplement of paper PMC10307832

compound: O=C(/C=C/c1ccccc1)NC(NC(=S)Nc1cccc2cccnc12)C(Cl)(Cl)Cl [Salubrinal] + O=C(CCCCCCC(=O)Nc1ccccc1)NO [Vorinostat] (partner 1 µM); assay: relative viability (nuclei count vs DMSO), 5 days (fraction); higher = more cells survive; details: first compound 0.08 µM
How it was run: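 Lung cancer cell lines were pin-tool dosed in 1536-well plates on the day after seeding, with either a lone drug or a fixed anchor-drug dose plus five library-drug doses (not always all listed) in √10 steps. Nuclei were counted on 4× images after 5 days. Relative viability is the ratio of treated-well to vehicle-well nuclei counts, with each value a median of duplicate plates.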

| Cell Line | relative viability |
| --- | --- |
| NCI-H522 | 1.03 |
| NCI-H2342 | 0.666 |
| NCI-H727 | 1.39 |
| NCI-H1650 | 0.76 |
| NCI-H1993 | 0.939 |
| SW 1573 | 0.852 |
| NCI-H838 | 0.764 |
| LCLC-103H | 0.725 |
| NCI-H520 | 0.755 |
| NCI-H2126 | 0.87 |
| EMC-BAC-2 | 0.388 |
| NCI-H2085 | 0.832 |
| HCC-366 | 0.494 |
| NCI-H1666 | 0.99 |
| NCI-H596 | 0.607 |
| LK-2 | 0.257 |
| NCI-H2087 | 0.981 |

| Cell Line | relative viability |
| --- | --- |
| NCI-H358 | 0.804 |
| NCI-H2170 | 0.861 |
| H3255 | 0.671 |
| COR-L23 | 0.471 |
| COR-L 105 | 1.08 |
| IA-LM | 0.974 |
| LOU-NH91 | 0.933 |
| ChaGo-K-1 | 0.834 |
| NCI-H1793 | 0.942 |
| NCI-H2405 | 0.998 |
| HCC-44 | 1.04 |
| SK-MES-1 | 1.35 |
| SW 900 | 0.735 |
| NCI-H1395 | 0.617 |
| NCI-H1648 | 0.431 |
| ABC-1 | 1.14 |
| NCI-H1944 | 0.69 |

same assay, conditions: first compound 0.253 µM

| Cell Line | relative viability |
| --- | --- |
| NCI-H522 | 0.944 |
| NCI-H2342 | 0.631 |
| NCI-H727 | 0.948 |
| NCI-H1650 | 0.592 |
| NCI-H1993 | 0.592 |
| SW 1573 | 0.686 |
| NCI-H838 | 0.736 |
| LCLC-103H | 0.716 |
| NCI-H520 | 0.675 |
| NCI-H2126 | 0.72 |
| EMC-BAC-2 | 0.477 |
| NCI-H2085 | 0.785 |
| NCI-H1666 | 0.886 |
| NCI-H596 | 0.356 |
| LK-2 | 0.279 |
| NCI-H2087 | 0.368 |
| NCI-H358 | 0.659 |

| Cell Line | relative viability |
| --- | --- |
| NCI-H2170 | 0.742 |
| H3255 | 0.81 |
| COR-L23 | 0.419 |
| COR-L 105 | 0.816 |
| IA-LM | 0.645 |
| LOU-NH91 | 0.925 |
| ChaGo-K-1 | 0.683 |
| NCI-H1793 | 0.57 |
| NCI-H2405 | 1.06 |
| HCC-44 | 1.1 |
| SK-MES-1 | 1 |
| SW 900 | 0.379 |
| NCI-H1395 | 0.768 |
| NCI-H1648 | 0.419 |
| ABC-1 | 0.947 |
| NCI-H1944 | 0.54 |

same assay, conditions: first compound 0.8 µM

| Cell Line | relative viability |
| --- | --- |
| NCI-H522 | 0.972 |
| NCI-H2342 | 0.715 |
| NCI-H727 | 1.06 |
| NCI-H1650 | 0.672 |
| NCI-H1993 | 0.805 |
| SW 1573 | 0.778 |
| NCI-H838 | 0.728 |
| LCLC-103H | 0.891 |
| NCI-H520 | 0.787 |
| NCI-H2126 | 0.888 |
| EMC-BAC-2 | 0.798 |
| NCI-H2085 | 0.837 |
| HCC-366 | 0.443 |
| NCI-H1666 | 0.99 |
| NCI-H596 | 0.796 |
| LK-2 | 0.356 |
| NCI-H2087 | 0.67 |

| Cell Line | relative viability |
| --- | --- |
| NCI-H358 | 0.757 |
| NCI-H2170 | 0.923 |
| H3255 | 0.945 |
| COR-L23 | 0.534 |
| COR-L 105 | 0.843 |
| IA-LM | 0.882 |
| LOU-NH91 | 1.08 |
| ChaGo-K-1 | 0.901 |
| NCI-H1793 | 0.995 |
| NCI-H2405 | 1.22 |
| HCC-44 | 1.13 |
| SK-MES-1 | 1.28 |
| SW 900 | 0.731 |
| NCI-H1395 | 1.09 |
| NCI-H1648 | 0.649 |
| ABC-1 | 0.971 |
| NCI-H1944 | 0.662 |

same assay, conditions: first compound 2.53 µM

| Cell Line | relative viability |
| --- | --- |
| NCI-H522 | 0.889 |
| NCI-H2342 | 0.668 |
| NCI-H727 | 1.1 |
| NCI-H1650 | 0.456 |
| SW 1573 | 0.55 |
| NCI-H838 | 0.697 |
| LCLC-103H | 0.714 |
| NCI-H520 | 0.638 |
| NCI-H2126 | 0.763 |
| EMC-BAC-2 | 0.514 |
| NCI-H2085 | 0.771 |
| HCC-366 | 0.364 |
| NCI-H1666 | 1.16 |
| NCI-H596 | 0.825 |
| LK-2 | 0.395 |
| NCI-H2087 | 0.676 |
| NCI-H358 | 0.641 |

| Cell Line | relative viability |
| --- | --- |
| NCI-H2170 | 0.956 |
| H3255 | 0.765 |
| COR-L23 | 0.323 |
| COR-L 105 | 0.797 |
| IA-LM | 0.816 |
| LOU-NH91 | 0.903 |
| ChaGo-K-1 | 0.814 |
| NCI-H1793 | 0.814 |
| NCI-H2405 | 1.04 |
| HCC-44 | 1 |
| SK-MES-1 | 1.1 |
| SW 900 | 0.505 |
| NCI-H1395 | 0.901 |
| NCI-H1648 | 0.345 |
| ABC-1 | 1.34 |
| NCI-H1944 | 0.504 |

same assay, conditions: first compound 8 µM

| Cell Line | relative viability |
| --- | --- |
| NCI-H522 | 0.844 |
| NCI-H2342 | 0.768 |
| NCI-H727 | 1.24 |
| NCI-H1650 | 0.648 |
| NCI-H1993 | 0.867 |
| SW 1573 | 0.62 |
| NCI-H838 | 0.751 |
| LCLC-103H | 0.748 |
| NCI-H520 | 0.67 |
| NCI-H2126 | 0.719 |
| EMC-BAC-2 | 0.494 |
| NCI-H2085 | 0.878 |
| HCC-366 | 0.345 |
| NCI-H1666 | 1.11 |
| NCI-H596 | 0.715 |
| LK-2 | 0.325 |
| NCI-H2087 | 0.762 |
| NCI-H358 | 0.661 |
| NCI-H2170 | 0.638 |
| H3255 | 0.76 |
| COR-L23 | 0.356 |
| COR-L 105 | 0.747 |
| IA-LM | 1.03 |
| LOU-NH91 | 0.841 |
| ChaGo-K-1 | 0.77 |
| NCI-H1793 | 0.719 |
